Reference: US20230321043A1, “COMPOUNDS HAVING PSEUDOMONAS ANTI-BIOFILM PROPERTIES” (Københavns Universitet, priority 2020, published 2023)

What was measured:
[1] = system: P. aeruginosa mPA01 wt and PDE mutants incl. PA4367 (bifA); test: dispersal of biofilms of PDE transposon mutants, crystal violet; assay type: cell-based, Pseudomonas aeruginosa; details: 18 hours old biofilm, two hours of treatment, FIG. 6A
Procedure: The inventors obtained mutants of all P. aeruginosa PDEs from the Washington P. aeruginosa mPAO1 transposon mutant library and investigated the ability of H6-335-P1 to disperse biofilms formed by each of these mutants in microtiter trays. […]
The resulting cultures were incubated at 37° C. on a rotary shaker (160 RPM) and biofilms were grown for 18 hours, at which time point either 2 μL of a 5 mM H6-335-P1 in 50% DMSO (+) or 2 μL of 50% DMSO (−) were added to each well. After two subsequent hours of growth, the culture supernatants were discarded and the amounts of biofilm present in the wells were quantified by crystal violet (CV) staining (Groizeleau et al., 2016).
The amounts of biofilm prevailing after two hours of treatments were determined for the wt strain mPA01 and each of the PDE mutants. […]

wt P. aeruginosa biofilm = test: biofilm inhibition, microtiter tray, crystal violet staining; assay type: cell-based, Pseudomonas aeruginosa; details: 8 hours
Procedure: Briefly, using a microtiter tray format, a 20 hour old culture of wt P. aeruginosa was diluted 1000 fold into 100 μL ABtrace media aliquots supplemented with 0.2% glucose, 0.5% Cas amino acids, 1 μM FeCl3, 0.2% DMSO and varying concentrations (100 μM, 50 μM, 25 μM, 12μM, 6 μM or 0 μM) of either H6-335-P1, H6-335, H6-335-SAR compound 26 or H6-335-SAR compound 25. The resulting microtiter trays were sealed with an air permeable lid, and biofilm cultures were grown on a rotary shaker at 37° C. and 160 RPM for 8 hours. After this, culture-supernatants were discarded and the remaining biomass was stained with crystal violet (Groizeleau et al., 2016). Finally, the amount of Crystal violet bound to the biofilm present in each well was plotted as a function of H6-335-P1, H6-335, H6-335-SAR compound 26 and H6-335-SAR compound 25 in the following concentrations: 100 μM, 50 μM, 25 μM, 12 μM, 6 μM or 0 μM (FIG. 4A). Means and standard deviations (bars) in FIG. 4A represents 4 biological replicates (n=4).

[2] = system: P. aeruginosa biofilms on implants; test: P. aeruginosa-infected peritoneal implant model in mice; assay type: in vivo; details: intraperitoneal
Procedure: Silicone implants (5 mm long, 6 mm OD×4 mm ID) were incubated with P. aeruginosa cultures (OD 0.1) for 20 hours to allow bacterial adhesion and subsequent coating. At time t=0, mice had the implants inserted in the peritoneal cavity and biofilm developed on the implants for 24 hours. (A) At 24 hours and 26 hours post-insertion of the implants (PI), the mice were treated with either H6-335-P1 (named “H6 P1” in FIG. 8) 25 μM (˜6 μg/g BW) in 0.2% cyclodextrin or 0.2% cyclodextrin, and at 26 hours PI with 30 μg per g BW tobramycin (TOB) or 0.9% NaCl. […] At 28 hours PI the mice were euthanized, and the bacterial contents as CFU per implant were determined. The median CFU per implant for the placebo group was set to 100. The median CFU per implant for the placebo groups were 8.5×10^6 (A) and 1.5×10^6 (B). Horizontal lines indicate median CFU for each group. Each symbol represents a mouse. Significance levels are based on Mann-Whitney U test (analysis of non-parametric data). IP administered doses: TOB: 30 mg/Kg BW, CIP: 10 mg/Kg BW, H6 P1: 2×6 mg/Kg BW.
The inventors first determined H6-335-P1 anti-biofilm efficacy in implant-harboring mice at low dosages (concentration) of 5 to 25 μM H6-335-P1 which corresponds to 1 to 5 μg H6-335-P1 per gram of body weight. […]

Enterobacter cloacae = test: biofilm formation / dispersal, host range; assay type: cell-based; details: data not shown
Excerpt: (§1) To determine the host range of H6-335-P1, the inventors conducted a Blast search for analogs of the P. aeruginosa BifA phosphodiesterase protein encoded by gene PA4367 (bifA).

Acinetobacter baumanii = test: biofilm formation / dispersal, host range; assay type: cell-based; details: data not shown
Excerpt: as §1

Burkholderia cenocepacia = test: biofilm formation / dispersal, host range; assay type: cell-based; details: data not shown
Excerpt: as §1

[3] = system: Stenotrophomonas maltophilia; test: biofilm formation / dispersal, host range; assay type: cell-based; details: data not shown
Excerpt: as §1

## N=C1NN=C(N)/C1=N/Nc1ccccc1F [H6-335-P1, 4-[(2-fluorophenyl) hydrazinylidene]pyrazole-3,5-diamine]
[1]
  induced dispersal of biofilm of the bifA mutant (PA4367): did not respond to H6-335-P1 induced dispersal
  induced dispersal of biofilms of P. aeruginosa wt and all the remaining PDE mutants: dispersed in response to H6-335-P1 exposure
Wt P. aeruginosa biofilm; 100 μM, compared to untreated (DMSO control)
  reduction of biofilm formation: 98%
Wt P. aeruginosa biofilm; 6 to 100 μM, FIG. 4A
  biofilm inhibition (dose-response, words): distinct concentration dependent biofilm inhibition
[2]; 5 to 25 μM (1 to 5 μg per gram of body weight), four hours of exposure, not shown
  biofilm bacteria dispersed from the implant: up to 90%
[2]; FIG. 8
  CFU on implants, combinatorial treatment followed by tobramycin or ciprofloxacin: synergistic antimicrobial (lethal) effects
Enterobacter cloacae
  biofilm formation of Enterobacter cloacae: failed to reduce biofilm formation
Acinetobacter baumanii
  biofilm formation of Acinetobacter baumanii: failed to reduce biofilm formation
Burkholderia cenocepacia
  biofilm formation of Burkholderia cenocepacia: failed to reduce biofilm formation
[3]
  biofilm formation of Stenotrophomonas maltophilia: failed to reduce biofilm formation
